Data from US20030220524A1, “Sulfur containing compounds” (priority 2000, published 2003).

How the values were obtained:
Experiment in all cases: TUNEL, flow cytometry
Assay type in all cases: cell-based, human
Conditions in all cases: 48 h
[1] = tested on: B1 leukemic cell line
Description: (§1) Adherent cell lines were plated at 35×10^4 cells/60 cm^2 dish the day before exposure to compound. Suspension cells were seeded at 25×10^4 cells/mL in a 6 well dish (Falcon) the day of exposure to compound. Mononucleated, T-cell depleted normal bone marrow cells were seeded at 50×10^4 cells/mL in a 6 well dish the day of exposure to compound. Cells were exposed to solvent control or approximate MTT50 and MTT30 concentrations of the compound. After 48 h of exposure to the compound, cells were harvested and fixed with a final concentration of 4% formaldehyde. Fixed cells were stored at −20° C. in 70% ethanol for no more than 5 days. Approximately 10^5 cells were pelleted and labeled with 0.02 mM Biotin-dUTP and 12.5 U TdT enzyme in a 1× reaction buffer (200 mM potassium cacodylate, 25 mM Tris-HCl, 25 μg/mL bovine serum albumin, pH 6.6), 2.5 mM CoCl2 and 0.01 mM dTTP (Roche Molecular Biochemicals, Laval, QC, Canada) for 45 min at 37° C. Samples were washed and incubated in 200 μL of 1:1000 fluorescein isothiocyanate (FITC)-conjugated avidin (Sigma) in 4×SSC, 5% skim milk powder and 0.05% Tween-20 (Sigma). Following 1 h of mixing at room temperature, the samples were washed and resuspended in 500 μL of D-PBS containing 2.5 μg/mL DNase-free RNase (Boehringer Mannheim) and 10 μg/mL PI. Following a 30 min incubation at room temperature, cells were analyzed using a XL-MCL flow cytometer (Coulter Corporation, Miami, Fla.) and a FACScalibar cytometer (Becton Dickinson, San Jose, Calif.). Profiles shown are representative of one experiment.
as §1, with “? s” for “Cells”, “appr ? nate” for “approximate”, “of” for “of the”, “Pl.” for “PI.”

[2] = tested on: G2 leukemic cell line
Description: as §1
as §1, with “? s” for “Cells”, “appr ? nate” for “approximate”, “of” for “of the”, “Pl.” for “PI.”

[3] = tested on: NB-4 leukemic cell line
Description: as §1
as §1, with “? s” for “Cells”, “appr ? nate” for “approximate”, “of” for “of the”, “Pl.” for “PI.”

[4] = tested on: WI38 non-transformed diploid fibroblasts
Description: as §1
as §1, with “? s” for “Cells”, “appr ? nate” for “approximate”, “of” for “of the”, “Pl.” for “PI.”

Structure (SMILES) | % TUNEL +ve ([1]; dose 50 uM) [%] | % TUNEL +ve ([1]; dose 100 uM) [%] | % TUNEL +ve ([2]; dose 50 uM) [%] | % TUNEL +ve ([2]; dose 100 uM) [%] | % TUNEL +ve ([3]; dose 50 uM) [%] | % TUNEL +ve ([3]; dose 100 uM) [%] | % TUNEL +ve ([4]; dose 50 uM) [%] | % TUNEL +ve ([4]; dose 100 uM) [%] | % TUNEL +ve ([1]; dose 25 uM) [%] | % TUNEL +ve ([2]; dose 25 uM) [%] | % TUNEL +ve ([4]; dose 25 uM) [%]
CSCSSC [Compound N, 2,3,5-trithiahexane] | 49 | 44 | 18 | 19 | 17 | 19 | 0.7 | 2 |  |  | 
CSSCC(=O)c1ccccc1 [Compound P, phenacyl methyl disulphide] | 39 | 67 | 17 | 53 | 24 | 0.2 | 0.70 | 1.7 |  |  | 
CCC(=O)OCSSc1ccccc1 [Compound Q, 1-phenyl-1,2-dithiapropyl propionate] | 78 |  | 58 |  | 16 |  | 0.2 |  | 32 | 23 | 4
